Measured values published in PMC7738283, “Discovery of orally active chalcones as histone lysine specific demethylase 1 inhibitors for the treatment of leukaemia” (Journal of Enzyme Inhibition and Medicinal Chemistry, 2020).
“Also recorded” adds a separate entry of the source.

How the values were obtained:
P30-OHK cells = assay: MTT cell viability assay, P30-OHK; type: cell-based; settings: Homo sapiens, P30-OHK leukaemia cells, read-out: IC50 cell proliferation P30-OHK
Protocol: (§3) All cell lines were purchased from the China Centre for Type Culture Collection (CCTCC, China). […] Then, 20 μL of MTT (3–(4,5-dimethylthiazol-2-yl)-2,5-diphenyltetrazolium bromide) solution (5 mg/ml) was added and the cells were incubated for 4 h. The absorbance was measured using a microplate reader (DeTie Technology Co., Ltd, NanJing, China).

KE-37 cells = assay: MTT cell viability assay, KE-37; type: cell-based; settings: Homo sapiens, KE-37 leukaemia cells, read-out: IC50 cell proliferation KE-37
Protocol: as §3

SUP-B15 cells = assay: MTT cell viability assay, SUP-B15; type: cell-based; settings: Homo sapiens, SUP-B15 leukaemia cells, read-out: IC50 cell proliferation SUP-B15
Protocol: as §3

LC4-1 cells = assay: MTT cell viability assay, LC4-1; type: cell-based; settings: Homo sapiens, LC4-1 leukaemia cells, read-out: IC50 cell proliferation LC4-1
Protocol: as §3

MOLT-4 cells = assay: MTT cell viability assay, MOLT-4; type: cell-based, human
Protocol: as §3

HAL-01 cells = assay: MTT cell viability assay, HAL-01; type: cell-based; settings: Homo sapiens, HAL-01 leukaemia cells, read-out: IC50 cell proliferation HAL-01
Protocol: as §3

MAO-A = target: T1, MAO-A (Homo sapiens, UniProt P21397); assay: MAO-A inhibition assay (MAO-Glo kit); type: biochemical; settings: for IC50: in vitro
T1 construct: purchased Active Motif 31502
T1 sequence (P21397 1-527): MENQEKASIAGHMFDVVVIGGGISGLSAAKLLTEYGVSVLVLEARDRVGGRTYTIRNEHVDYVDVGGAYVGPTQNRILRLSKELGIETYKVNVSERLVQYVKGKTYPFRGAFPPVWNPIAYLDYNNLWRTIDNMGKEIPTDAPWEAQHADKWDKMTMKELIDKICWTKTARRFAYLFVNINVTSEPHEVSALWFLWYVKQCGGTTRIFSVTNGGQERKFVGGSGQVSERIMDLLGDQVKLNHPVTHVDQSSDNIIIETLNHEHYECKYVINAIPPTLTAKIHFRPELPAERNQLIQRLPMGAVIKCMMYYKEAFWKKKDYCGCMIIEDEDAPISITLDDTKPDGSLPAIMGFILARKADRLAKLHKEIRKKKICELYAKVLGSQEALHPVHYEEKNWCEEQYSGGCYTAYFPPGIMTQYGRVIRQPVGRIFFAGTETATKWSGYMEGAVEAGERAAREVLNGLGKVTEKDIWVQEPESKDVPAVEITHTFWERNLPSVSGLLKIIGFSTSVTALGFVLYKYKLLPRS
Protocol: (§1) The inhibition of LSD1 activity was evaluated according to reported references. pET-28b-LSD1 (full length) was transfected into BL21 (DE). Then, the protein was induced with 0.25 mmol/L IPTG following sonication and purified with Ni-NTA (Qiagen, Tubingen, Germany), Resource Q (GE, Pittsburgh, PA, USA) and Sephacryl S-200 HR (GE, Pittsburgh, PA, USA). The fluorescence intensity was read using EnVision Plate Reader (PerkinElmer, Waltham, MA, USA) to calculate the inhibition rate. The MAO-A and MAO-B were purchased from Active Motif (Cat#31502, Cat#31503, Carlsbad, CA, USA). Biochemical Kits were purchased from Promega (MAO-Glo Assay, Madison, WI, USA). The inhibitory activities of MAO-A and MAO-B were obtained according to the reported reference. The inhibitory activities of CDK1 and CDK2 were obtained according to the reported reference.

MAO-B = target: T2, MAO-B (Homo sapiens, UniProt P27338); assay: MAO-B inhibition assay (MAO-Glo kit); type: biochemical; settings: for IC50: in vitro, MAO-AB [sic]
T2 construct: purchased Active Motif 31503
T2 sequence (P27338 1-520): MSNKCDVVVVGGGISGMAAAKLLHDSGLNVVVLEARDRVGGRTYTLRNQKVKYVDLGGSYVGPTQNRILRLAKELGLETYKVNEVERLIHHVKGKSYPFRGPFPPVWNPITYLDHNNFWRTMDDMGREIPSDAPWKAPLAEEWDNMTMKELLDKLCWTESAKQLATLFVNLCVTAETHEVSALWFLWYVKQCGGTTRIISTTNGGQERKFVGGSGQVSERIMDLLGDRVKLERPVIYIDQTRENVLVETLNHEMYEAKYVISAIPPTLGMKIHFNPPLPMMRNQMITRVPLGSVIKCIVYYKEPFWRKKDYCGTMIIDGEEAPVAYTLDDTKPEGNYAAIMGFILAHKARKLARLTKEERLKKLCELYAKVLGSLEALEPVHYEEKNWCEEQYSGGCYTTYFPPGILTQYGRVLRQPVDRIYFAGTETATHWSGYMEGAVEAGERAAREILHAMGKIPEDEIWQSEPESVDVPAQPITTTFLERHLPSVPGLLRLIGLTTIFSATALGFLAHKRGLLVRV
Protocol: as §1

LSD1 = target: T3, LSD1 (Homo sapiens, UniProt O60341); assay: LSD1 enzyme inhibition assay (recombinant LSD1, fluorescence); type: biochemical; settings: for IC50: in vitro
T3 construct: pET-28b-LSD1 (full length) was transfected into BL21 (DE); inferred from the pET-28b vector and Ni-NTA purification; made in house; host or cells: E. coli BL21 (DE)
Protocol: (§4) The inhibition of LSD1 activity was evaluated according to reported references [23, 24]. pET-28b-LSD1 (full length) was transfected into BL21 (DE). Then, the protein was induced with 0.25 mmol/L IPTG following sonication and purified with Ni-NTA (Qiagen, Tubingen, Germany), Resource Q (GE, Pittsburgh, PA, USA) and Sephacryl S-200 HR (GE, Pittsburgh, PA, USA). The fluorescence intensity was read using EnVision Plate Reader (PerkinElmer, Waltham, MA, USA) to calculate the inhibition rate. […] The inhibitory activities of CDK1 and CDK2 were obtained according to the reported reference [26].

MOLT-4 xenograft = MOLT-4 xenograft study; type: in vivo; settings: 60 mg/kg and 100 mg/kg, intragastric, 21 days
Protocol: Animals were treated according to the protocols established by the ethics committee of Shengjing Hospital of China Medical University and the in vivo experiments were carried out in accordance with the approved guidelines and approved by the ethics committee of Shengjing Hospital of China Medical University. BALB/c nude mice were purchased from Hunan Slack Scene of Laboratory Animal Co., Ltd. (Hunan, China). Xenograft models using human leukaemia cells, MOLT-4, were established in BALB/c mice. Then, mice were separated into vehicle group and treatment groups (60 mg/kg and 100 mg/kg). The treatment groups received compound D6 by intragastric administration for a period of 21 days.

CDK2 = CDK2 (Homo sapiens, UniProt P24941); assay: CDK2 enzyme assay; type: biochemical; settings: 400 nM; read-out: inhibition rate CDK2
Protocol: as §4

[1] = system: 22RV1 (prostate cancer cells); assay: MTT cell viability assay, 22RV1; type: cell-based; settings: 4, 8, 16 μM; 48 h and 72 h
Protocol: (§2) Cancer cell lines (Hela, 22RV1, Caco-2, BEL-7402, MOLT-4, OVCAR-3, HCT-8, HIC, IMR-32, HAL-01, KE-37, P30-OHK, SUP-B15 and LC4-1) were maintained in RPMI 1640 medium (Hyclone, Los Angeles, CA, USA) with 10% foetal bovine serum (Hyclone, Los Angeles, USA) and 1% penicillin-streptomycin (Hyclone, Los Angeles, USA) in a humidified atmosphere of 5% CO2 and 95% air at 37 °C. All cell lines were purchased from the China Centre for Type Culture Collection (CCTCC, China). Control containing sequence specific for LSD1 ([…]) was described. The shRNA constructs were transfected into MOLT-4 cells using the Lonza Group nucleofector technology in accordance with the manufacturer’s instructions. MOLT-4&shLSD1 cells and MOLT-4&shControl cells were also established and cultured according to the published references. After the incubation for 24 h, cancer cell lines were cultured with the chalcone D6 at different concentrations. Then, 20 μL of MTT (3–(4,5-dimethylthiazol-2-yl)-2,5-diphenyltetrazolium bromide) solution (5 mg/ml) was added and the cells were incubated for 4 h. The absorbance was measured using a microplate reader (DeTie Technology Co., Ltd, NanJing, China).

CDK1 = CDK1 (Homo sapiens, UniProt P06493); assay: CDK1 enzyme assay; type: biochemical; settings: 400 nM; read-out: inhibition rate CDK1
Sequence of CDK1 (P06493 whole entry, species assumed): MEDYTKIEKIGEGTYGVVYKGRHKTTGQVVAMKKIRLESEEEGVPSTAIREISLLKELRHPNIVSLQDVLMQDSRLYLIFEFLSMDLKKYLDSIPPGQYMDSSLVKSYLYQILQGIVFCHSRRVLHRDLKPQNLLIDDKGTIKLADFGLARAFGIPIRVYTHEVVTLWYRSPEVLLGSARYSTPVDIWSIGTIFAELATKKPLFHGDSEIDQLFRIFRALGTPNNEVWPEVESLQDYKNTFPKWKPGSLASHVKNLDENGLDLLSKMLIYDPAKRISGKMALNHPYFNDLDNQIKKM
Sequence of CDK1 (P14635 whole entry partner, species assumed): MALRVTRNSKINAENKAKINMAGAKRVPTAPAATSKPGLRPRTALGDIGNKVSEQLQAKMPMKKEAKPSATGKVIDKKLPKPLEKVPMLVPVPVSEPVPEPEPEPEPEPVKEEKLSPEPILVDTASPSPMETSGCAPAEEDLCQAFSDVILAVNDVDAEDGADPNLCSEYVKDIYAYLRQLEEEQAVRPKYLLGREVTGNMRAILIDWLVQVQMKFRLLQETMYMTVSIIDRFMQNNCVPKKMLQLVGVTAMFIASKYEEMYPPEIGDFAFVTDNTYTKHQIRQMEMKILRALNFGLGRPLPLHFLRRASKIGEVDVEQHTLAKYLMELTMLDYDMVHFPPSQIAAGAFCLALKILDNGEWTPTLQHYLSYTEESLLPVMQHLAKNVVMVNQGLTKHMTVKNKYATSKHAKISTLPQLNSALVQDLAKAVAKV
Protocol: as §4

[2] = system: H3K9me1 and H3K9me2 in MOLT-4 cells; assay: Western blotting of LSD1 substrates H3K9me1/2 in MOLT-4 cells; type: cell-based, human; settings: western blot
Protocol: Western blot was performed with the total lysates using RIPA buffer (Hyclone, Los Angeles, CA, USA). Same amounts of protein were subjected to SDS-PAGE, and then transferred to nitrocellulose membranes (PALL, Cortland, NY, USA). After blocking with 5% milk solution, the membranes were incubated at 4 °C with respective antibody overnight, followed by the incubation with a secondary antibody. Finally, the blot was visualised by enhanced chemiluminescence kit (Thermo Fisher, Waltham, MA, USA).

[3] = system: IMR-32 (neuroblastoma cells); assay: MTT cell viability assay, IMR-32; type: cell-based; settings: 4, 8, 16 μM; 48 h and 72 h
Protocol: as §2

[4] = system: Caco-2 (colon cancer cells); assay: MTT cell viability assay, Caco-2; type: cell-based; settings: 4, 8, 16 μM; 48 h and 72 h
Protocol: as §2

Row | melting point | IC50 (MAO-A) | IC50 (MAO-B) | IC50 (LSD1) | Structure (SMILES) | also measured
1 |  |  |  |  | O=c1[nH]cc(F)c(=O)[nH]1 [5-Fluorouracil] | IC50 (P30-OHK cells): 4.17 µM; IC50 (KE-37 cells): 4.02 µM; IC50 (SUP-B15 cells): 2.1 µM; IC50 (LC4-1 cells): 10.2 µM; IC50 (MOLT-4 cells; Homo sapiens, MOLT-4 leukaemia cells, MTT, read-out: IC50 cell proliferation MOLT-4): 2.89 µM; IC50 (HAL-01 cells): 5.1 µM
2 | 145 to 147 °C | > 20 µM | > 20 µM | > 20 µM | O=C(CCl)Nc1ccc(C(=O)/C=C/c2ccccc2)cc1 [C1, (E)-2-Chloro-N-(4-cinnamoylphenyl)acetamide] | 
3 | 156 to 158 °C | > 20 µM | > 20 µM | 19.7 ± 0.67 µM | O=C(CCl)Nc1ccc(C(=O)/C=C/c2cccc(F)c2)cc1 [C2, (E)-2-Chloro-N-(4–(3-(3-fluorophenyl)acryloyl)phenyl)acetamide] | 
4 | 167 to 169 °C | > 20 µM | > 20 µM | 15.4 ± 0.28 µM | O=C(CCl)Nc1ccc(C(=O)/C=C/c2ccccc2F)cc1 [C3, (E)-2-Chloro-N-(4–(3-(2-fluorophenyl)acryloyl)phenyl)acetamide] | 
5 |  | > 20 µM | > 20 µM | > 20 µM | O=C(CCl)Nc1ccc(C(=O)/C=C/c2ccc(F)cc2)cc1 [C4] | 
6 |  | > 20 µM | > 20 µM | > 20 µM | Nc1ccc(C(=O)/C=C/c2ccccc2F)cc1 [Chalcone 4, reference compound] | 
7 | 182 to 184 °C | > 20 µM | > 20 µM | 11.3 ± 0.13 µM | CCN1CCN(C(=S)SCC(=O)Nc2ccc(C(=O)/C=C/c3ccc(F)cc3)cc2)CC1 [D1, (E)-2-((4–(3-(4-Fluorophenyl)acryloyl)phenyl)amino)-2-oxoethyl-4-ethylpiperazine-1-carbodithioate] | 
8 |  | > 20 µM | > 20 µM | 9.35 ± 0.14 µM | CN1CCN(C(=S)SCC(=O)Nc2ccc(C(=O)/C=C/c3ccccc3)cc2)CC1 [D2, (E)-2-((4-Cinnamoylphenyl)amino)-2-oxoethyl-4-methylpiperazine-1-carbodithioate] | 
9 | 181 to 183 °C | > 20 µM | > 20 µM | 13.9 ± 0.18 µM | CCN1CCN(C(=S)SCC(=O)Nc2ccc(C(=O)/C=C/c3ccccc3)cc2)CC1 [D3, (E)-2-((4-Cinnamoylphenyl)amino)-2-oxoethyl-4-ethylpiperazine-1-carbodithioate] | fold activity loss against LSD1 (fluorine replaced with hydrogen) (LSD1; D3 vs. D5): over 6 fold
10 |  | > 20 µM | > 20 µM | 6.03 ± 0.17 µM | CN1CCN(C(=S)SCC(=O)Nc2ccc(C(=O)/C=C/c3cccc(F)c3)cc2)CC1 [D4, (E)-2-((4–(3-(3-Fluorophenyl)acryloyl)phenyl)amino)-2-oxoethyl-4-methylpiperazine-1-carbodithioate] | 
11 | 136 to 138 °C | > 20 µM | > 20 µM | 2.29 ± 0.35 µM | CCN1CCN(C(=S)SCC(=O)Nc2ccc(C(=O)/C=C/c3cccc(F)c3)cc2)CC1 [D5, (E)-2-((4–(3-(3-Fluorophenyl)acryloyl)phenyl)amino)-2-oxoethyl-4-ethylpiperazine-1-carbodithioate] | 
12 |  | > 20 µM | > 20 µM | 3.27 ± 0.13 µM | O=C(CSC(=S)N1CCN(Cc2ccccc2)CC1)Nc1ccc(C(=O)/C=C/c2ccccc2F)cc1 [D7, (E)-2-((4–(3-(2-Fluorophenyl)acryloyl)phenyl)amino)-2-oxoethyl-4-benzylpiperazine-1-carbodithioate] | 
13 |  | > 20 µM | > 20 µM |  | Cc1ccc(Cn2cc(CSC(=S)N3CCN(C(=O)OC(C)(C)C)CC3)nn2)cc1 [Dithiocarbamate 26, reference compound] | 

Row | Structure (SMILES) | melting point | IC50 (MAO-A) | IC50 (MAO-B) | IC50 (LSD1) | also measured
14 | CC(C)(C)OC(=O)N1CCN(C(=S)SCC(=O)Nc2ccc(C(=O)/C=C/c3ccccc3F)cc2)CC1 [D6, Tert-butyl-(E)-4-(((2-((4–(3-(2-fluorophenyl)acryloyl)phenyl)amino)-2-oxoethyl)thio)carbonothioyl)piperazine-1-carboxylate] |  | > 20 µM | > 20 µM |  | body weight of mice (MOLT-4 xenograft): almost unchanged; global toxicity in xenograft model (MOLT-4 xenograft): low global toxicity; also recorded: without apparent toxicity; tumour growth (tumour volume, tumour weight) (MOLT-4 xenograft): significantly suppressed MOLT-4 xenograft tumour growth; also recorded: inhibited tumour growth remarkably; also recorded: inhibited in vivo tumour growth; inhibition at 0.4 µM (CDK2): 19%; antiproliferative effects (cell viability) 22RV1 [1]: potential antiproliferative effects; inhibition at 0.4 µM (CDK1): 16.3%; inhibition at 0.4 µM (MAO-A; 400 nM, read-out: inhibition rate MAO-A): 16.3%; amount of H3K9me1 and H3K9me2 [2]: induce the accumulation of H3K9me1/2; also recorded: concentration dependent accumulation; also recorded: up-regulated the expression levels of H3K9me1 and H3K9me2; expression level of LSD1 [2]: did not affect; inhibition at 0.4 µM (MAO-B; 400 nM, read-out: inhibition rate MAO-B): 17.7%; antiproliferative effects (cell viability) MOLT-4 (MOLT-4 cells; 4, 8, 16 μM, 48 h and 72 h): potential antiproliferative effects; antiproliferation efficiency (MOLT-4 cells; MOLT-4 cells, 48 h, 4 μM): around 80%; antiproliferative effects (cell viability) IMR-32 [3]: potential antiproliferative effects; antiproliferative effects (cell viability) Caco-2 [4]: potential antiproliferative effects
